Results: patent US9840520B2, “Heterocyclic hydroxamic acids as protein deacetylase inhibitors and dual protein deacetylase-protein kinase inhibitors and methods of use thereof” (The Regents of the University of Colorado, A Body Corporate, priority 2014, dated 2017)
Values belong to the compound of their own block, whether it stands above or below them.

Columns and labels:
NCI-H322M = test: NCI60 tumour cell line screen, NCI-H322M; format: cell-based; details: Homo sapiens, Non-Small Cell Lung Cancer
SK-MEL-28 = test: NCI60 tumour cell line screen, SK-MEL-28; format: cell-based; details: Homo sapiens; SK-MEL-28, Melanoma
COLO205 = test: NCI60 tumour cell line screen, COLO205; format: cell-based; details: Homo sapiens, COLO 205; COLO205, Colon Cancer
NCI-H460 = test: NCI60 tumour cell line screen, NCI-H460; format: cell-based; details: Homo sapiens; NCI-H460, Non-Small Cell Lung Cancer
NCI-H23 = test: NCI60 tumour cell line screen, NCI-H23; format: cell-based; details: Homo sapiens; NCI-H23, Non-Small Cell Lung Cancer
HCT-15 = test: NCI60 tumour cell line screen, HCT-15; format: cell-based; details: Homo sapiens; HCT-15, Colon Cancer
TK-10 = test: NCI60 tumour cell line screen, TK-10; format: cell-based; details: Homo sapiens; TK-10, Renal Cancer
HL-60(TB) = test: NCI60 tumour cell line screen, HL-60(TB); format: cell-based; details: Homo sapiens, Leukemia
RXF393 = test: NCI60 tumour cell line screen, RXF393; format: cell-based; details: Homo sapiens, RXF 393; RXF393, Renal Cancer
SK-MEL-5 = test: NCI60 tumour cell line screen, SK-MEL-5; format: cell-based; details: Homo sapiens; SK-MEL-5, Melanoma
UACC-62 = test: NCI60 tumour cell line screen, UACC-62; format: cell-based; details: Homo sapiens; UACC-62, Melanoma
MDA-MB-231/ATCC = test: NCI60 tumour cell line screen, MDA-MB-231/ATCC; format: cell-based; details: Homo sapiens, Breast Cancer
MOLT-4 = test: NCI60 tumour cell line screen, MOLT-4; format: cell-based; details: Homo sapiens; MOLT-4, Leukemia
UACC-257 = test: NCI60 tumour cell line screen, UACC-257; format: cell-based; details: Homo sapiens; UACC-257, Melanoma
K-562 = test: NCI60 tumour cell line screen, K-562; format: cell-based; details: Homo sapiens, K562; K-562, Leukemia
SF-268 = test: NCI60 tumour cell line screen, SF-268; format: cell-based; details: Homo sapiens; SF-268, CNS Cancer
PC-3 = test: NCI60 tumour cell line screen, PC-3; format: cell-based; details: Homo sapiens; PC-3, Prostate Cancer
NCI-H226 = test: NCI60 tumour cell line screen, NCI-H226; format: cell-based; details: Homo sapiens; NCI-H226, Non-Small Cell Lung Cancer
HCC-2998 = test: NCI60 tumour cell line screen, HCC-2998; format: cell-based; details: Homo sapiens; HCC-2998, Colon Cancer
M14 = test: NCI60 tumour cell line screen, M14; format: cell-based; details: Homo sapiens; M14, Melanoma
SN12C = test: NCI60 tumour cell line screen, SN12C; format: cell-based; details: Homo sapiens, Renal Cancer
SF-539 = test: NCI60 tumour cell line screen, SF-539; format: cell-based; details: Homo sapiens; SF-539, CNS Cancer
NCI/ADR-RES = test: NCI60 tumour cell line screen, NCI/ADR-RES; format: cell-based; details: Homo sapiens, Ovarian Cancer
HOP-62 = test: NCI60 tumour cell line screen, HOP-62; format: cell-based; details: Homo sapiens; HOP-62, Non-Small Cell Lung Cancer
HS578T = test: NCI60 tumour cell line screen, HS578T; format: cell-based; details: Homo sapiens, Hs-578T, Breast Cancer
MCF7 = test: NCI60 tumour cell line screen, MCF7; format: cell-based; details: Homo sapiens; MCF7, Breast Cancer
MDA-MB-435 = test: NCI60 tumour cell line screen, MDA-MB-435; format: cell-based; details: Homo sapiens; MDA-MB-435, Melanoma
SR = test: NCI60 tumour cell line screen, SR; format: cell-based; details: Homo sapiens, Leukemia
SK-OV-3 = test: NCI60 tumour cell line screen, SK-OV-3; format: cell-based; details: Homo sapiens; SK-OV-3, Ovarian Cancer
OVCAR-3 = test: NCI60 tumour cell line screen, OVCAR-3; format: cell-based; details: Homo sapiens; OVCAR-3, Ovarian Cancer
LOXIMVI = test: NCI60 tumour cell line screen, LOXIMVI; format: cell-based; details: Homo sapiens, LOX IMVI, Melanoma
OVCAR-8 = test: NCI60 tumour cell line screen, OVCAR-8; format: cell-based; details: Homo sapiens; OVCAR-8, Ovarian Cancer
RPMI-8226 = test: NCI60 tumour cell line screen, RPMI-8226; format: cell-based; details: Homo sapiens; RPMI-8226, Leukemia
OVCAR-4 = test: NCI60 tumour cell line screen, OVCAR-4; format: cell-based; details: Homo sapiens; OVCAR-4, Ovarian Cancer
SNB-75 = test: NCI60 tumour cell line screen, SNB-75; format: cell-based; details: Homo sapiens; SNB-75, CNS Cancer
786-0 = test: NCI60 tumour cell line screen, 786-0; format: cell-based; details: Homo sapiens; 786-0, Renal Cancer
BT-549 = test: NCI60 tumour cell line screen, BT-549; format: cell-based; details: Homo sapiens; BT-549, Breast Cancer
A498 = test: NCI60 tumour cell line screen, A498; format: cell-based; details: Homo sapiens; A498, Renal Cancer
OVCAR-5 = test: NCI60 tumour cell line screen, OVCAR-5; format: cell-based; details: Homo sapiens; OVCAR-5, Ovarian Cancer
T-47D = test: NCI60 tumour cell line screen, T-47D; format: cell-based; details: Homo sapiens, T47D, Breast Cancer
ACHN = test: NCI60 tumour cell line screen, ACHN; format: cell-based; details: Homo sapiens, Renal Cancer
SF-295 = test: NCI60 tumour cell line screen, SF-295; format: cell-based; details: Homo sapiens; SF-295, CNS Cancer
HT29 = test: NCI60 tumour cell line screen, HT29; format: cell-based; details: Homo sapiens, HT-29; HT29, Colon Cancer
UO-31 = test: NCI60 tumour cell line screen, UO-31; format: cell-based; details: Homo sapiens; UO-31, Renal Cancer
A549/ATCC = test: NCI60 tumour cell line screen, A549/ATCC; format: cell-based; details: Homo sapiens, Non-Small Cell Lung Cancer
MALME-3M = test: NCI60 tumour cell line screen, MALME-3M; format: cell-based; details: Homo sapiens, Melanoma
SNB-19 = test: NCI60 tumour cell line screen, SNB-19; format: cell-based; details: Homo sapiens; SNB-19, CNS Cancer
SW-620 = test: NCI60 tumour cell line screen, SW-620; format: cell-based; details: Homo sapiens; SW-620, Colon Cancer
HCT-116 = test: NCI60 tumour cell line screen, HCT-116; format: cell-based; details: Homo sapiens; HCT-116, Colon Cancer
SK-MEL-2 = test: NCI60 tumour cell line screen, SK-MEL-2; format: cell-based; details: Homo sapiens; SK-MEL-2, Melanoma
MDA-MB-468 = test: NCI60 tumour cell line screen, MDA-MB-468; format: cell-based; details: Homo sapiens; MDA-MB-468, Breast Cancer
CCRF-CEM = test: NCI60 tumour cell line screen, CCRF-CEM; format: cell-based; details: Homo sapiens, Leukemia
KM12 = test: NCI60 tumour cell line screen, KM12; format: cell-based; details: Homo sapiens; KM12, Colon Cancer
NCI-H522 = test: NCI60 tumour cell line screen, NCI-H522; format: cell-based; details: Homo sapiens; NCI-H522, Non-Small Cell Lung Cancer
U251 = test: NCI60 tumour cell line screen, U251; format: cell-based; details: Homo sapiens, U-251; U251, CNS Cancer
DU-145 = test: NCI60 tumour cell line screen, DU-145; format: cell-based; details: Homo sapiens; DU-145, Prostate Cancer
IGROV1 = test: NCI60 tumour cell line screen, IGROV1; format: cell-based; details: Homo sapiens, IGROV-1; IGROV1, Ovarian Cancer
CAKI-1 = test: NCI60 tumour cell line screen, CAKI-1; format: cell-based; details: Homo sapiens; CAKI-1, Renal Cancer
HDAC-10 = HDAC-10 (Homo sapiens, UniProt Q969S8); test: HDAC Fluorescent Activity Assay (Fluor de Lys), HDAC-10
HDAC-4 = HDAC-4 (Homo sapiens, UniProt P56524); test: HDAC Fluorescent Activity Assay (Fluor de Lys), HDAC-4
HDAC-5 = HDAC-5 (Homo sapiens, UniProt Q9UQL6); test: HDAC Fluorescent Activity Assay (Fluor de Lys), HDAC-5
HDAC-1 = HDAC-1 (Homo sapiens, UniProt Q13547); test: HDAC Fluorescent Activity Assay (Fluor de Lys), HDAC-1
HDAC-8 = HDAC-8 (Homo sapiens, UniProt Q9BY41); test: HDAC Fluorescent Activity Assay (Fluor de Lys), HDAC-8
HDAC-7 = HDAC-7 (Homo sapiens, UniProt Q8WUI4); test: HDAC Fluorescent Activity Assay (Fluor de Lys), HDAC-7
HDAC-11 = HDAC-11 (Homo sapiens, UniProt Q96DB2); test: HDAC Fluorescent Activity Assay (Fluor de Lys), HDAC-11
HDAC-2 = HDAC-2 (Homo sapiens, UniProt Q92769); test: HDAC Fluorescent Activity Assay (Fluor de Lys), HDAC-2
HDAC-3 = HDAC-3 (Homo sapiens, UniProt O15379); test: HDAC Fluorescent Activity Assay (Fluor de Lys), HDAC-3
HDAC-6 = HDAC-6 (Homo sapiens, UniProt Q9UBN7); test: HDAC Fluorescent Activity Assay (Fluor de Lys), HDAC-6
HDAC-9 = HDAC-9 (Homo sapiens, UniProt Q9UKV0); test: HDAC Fluorescent Activity Assay (Fluor de Lys), HDAC-9
TTK/Mps1 = TTK/Mps1 (Homo sapiens, UniProt P33981); details: TTK/Mps1 inhibitors of the literature; cited from earlier work
ovarian xenograft = details: cited from earlier work

Chain of HDAC-9 (Q9UKV0 whole entry): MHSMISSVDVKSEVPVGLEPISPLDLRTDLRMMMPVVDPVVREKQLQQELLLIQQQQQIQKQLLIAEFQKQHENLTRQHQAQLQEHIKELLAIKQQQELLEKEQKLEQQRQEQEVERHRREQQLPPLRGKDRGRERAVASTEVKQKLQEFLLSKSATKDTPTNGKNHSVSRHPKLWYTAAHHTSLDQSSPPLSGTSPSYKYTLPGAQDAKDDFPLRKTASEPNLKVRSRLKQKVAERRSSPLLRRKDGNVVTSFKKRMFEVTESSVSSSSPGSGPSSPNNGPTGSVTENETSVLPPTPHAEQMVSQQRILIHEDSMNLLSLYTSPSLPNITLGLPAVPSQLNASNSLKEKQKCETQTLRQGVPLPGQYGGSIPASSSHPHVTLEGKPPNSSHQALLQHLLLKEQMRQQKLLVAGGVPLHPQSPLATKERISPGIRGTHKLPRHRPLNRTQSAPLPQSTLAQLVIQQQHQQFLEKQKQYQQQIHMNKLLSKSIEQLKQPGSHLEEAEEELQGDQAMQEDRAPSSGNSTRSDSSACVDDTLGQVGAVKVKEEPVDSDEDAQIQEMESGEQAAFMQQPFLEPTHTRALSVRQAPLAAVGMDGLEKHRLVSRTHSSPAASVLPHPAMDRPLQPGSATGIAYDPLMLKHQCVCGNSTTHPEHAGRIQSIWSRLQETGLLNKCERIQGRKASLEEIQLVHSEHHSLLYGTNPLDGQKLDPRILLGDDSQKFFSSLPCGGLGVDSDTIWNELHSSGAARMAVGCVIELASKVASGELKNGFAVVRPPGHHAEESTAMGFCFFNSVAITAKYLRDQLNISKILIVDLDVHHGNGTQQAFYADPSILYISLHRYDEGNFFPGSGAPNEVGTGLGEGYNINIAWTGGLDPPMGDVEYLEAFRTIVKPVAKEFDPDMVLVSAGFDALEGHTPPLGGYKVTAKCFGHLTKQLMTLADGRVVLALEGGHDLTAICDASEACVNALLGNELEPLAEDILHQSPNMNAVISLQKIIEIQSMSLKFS
Chain of HDAC-3 (O15379 whole entry): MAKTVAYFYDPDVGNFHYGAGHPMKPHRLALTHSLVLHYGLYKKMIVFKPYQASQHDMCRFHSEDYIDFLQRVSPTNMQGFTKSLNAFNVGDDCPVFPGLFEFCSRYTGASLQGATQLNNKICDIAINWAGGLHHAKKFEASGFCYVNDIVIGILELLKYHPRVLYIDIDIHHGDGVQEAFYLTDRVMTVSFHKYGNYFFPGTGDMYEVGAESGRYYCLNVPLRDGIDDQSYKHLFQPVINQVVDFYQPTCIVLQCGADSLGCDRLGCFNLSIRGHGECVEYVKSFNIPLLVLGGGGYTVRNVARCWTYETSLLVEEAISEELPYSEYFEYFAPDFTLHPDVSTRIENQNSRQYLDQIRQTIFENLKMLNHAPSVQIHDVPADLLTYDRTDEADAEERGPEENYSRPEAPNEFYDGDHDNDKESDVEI
Chain of HDAC-3 (Q9Y618 395-489 partner limits assumed): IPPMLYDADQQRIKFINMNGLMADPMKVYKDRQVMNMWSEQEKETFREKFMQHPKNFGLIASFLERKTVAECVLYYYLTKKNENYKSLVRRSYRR
Chain of HDAC-8 (Q9BY41 whole entry): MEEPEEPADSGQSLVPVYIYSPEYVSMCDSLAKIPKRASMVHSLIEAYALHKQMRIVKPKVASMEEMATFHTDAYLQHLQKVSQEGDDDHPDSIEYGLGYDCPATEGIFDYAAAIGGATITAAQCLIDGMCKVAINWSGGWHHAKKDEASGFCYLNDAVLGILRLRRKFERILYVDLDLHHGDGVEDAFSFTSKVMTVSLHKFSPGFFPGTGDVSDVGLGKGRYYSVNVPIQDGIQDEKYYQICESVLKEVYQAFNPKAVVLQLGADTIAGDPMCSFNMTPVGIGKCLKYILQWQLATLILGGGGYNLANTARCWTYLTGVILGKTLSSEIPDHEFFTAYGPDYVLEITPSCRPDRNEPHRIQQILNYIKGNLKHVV
Chain of HDAC-6 (Q9UBN7 whole entry): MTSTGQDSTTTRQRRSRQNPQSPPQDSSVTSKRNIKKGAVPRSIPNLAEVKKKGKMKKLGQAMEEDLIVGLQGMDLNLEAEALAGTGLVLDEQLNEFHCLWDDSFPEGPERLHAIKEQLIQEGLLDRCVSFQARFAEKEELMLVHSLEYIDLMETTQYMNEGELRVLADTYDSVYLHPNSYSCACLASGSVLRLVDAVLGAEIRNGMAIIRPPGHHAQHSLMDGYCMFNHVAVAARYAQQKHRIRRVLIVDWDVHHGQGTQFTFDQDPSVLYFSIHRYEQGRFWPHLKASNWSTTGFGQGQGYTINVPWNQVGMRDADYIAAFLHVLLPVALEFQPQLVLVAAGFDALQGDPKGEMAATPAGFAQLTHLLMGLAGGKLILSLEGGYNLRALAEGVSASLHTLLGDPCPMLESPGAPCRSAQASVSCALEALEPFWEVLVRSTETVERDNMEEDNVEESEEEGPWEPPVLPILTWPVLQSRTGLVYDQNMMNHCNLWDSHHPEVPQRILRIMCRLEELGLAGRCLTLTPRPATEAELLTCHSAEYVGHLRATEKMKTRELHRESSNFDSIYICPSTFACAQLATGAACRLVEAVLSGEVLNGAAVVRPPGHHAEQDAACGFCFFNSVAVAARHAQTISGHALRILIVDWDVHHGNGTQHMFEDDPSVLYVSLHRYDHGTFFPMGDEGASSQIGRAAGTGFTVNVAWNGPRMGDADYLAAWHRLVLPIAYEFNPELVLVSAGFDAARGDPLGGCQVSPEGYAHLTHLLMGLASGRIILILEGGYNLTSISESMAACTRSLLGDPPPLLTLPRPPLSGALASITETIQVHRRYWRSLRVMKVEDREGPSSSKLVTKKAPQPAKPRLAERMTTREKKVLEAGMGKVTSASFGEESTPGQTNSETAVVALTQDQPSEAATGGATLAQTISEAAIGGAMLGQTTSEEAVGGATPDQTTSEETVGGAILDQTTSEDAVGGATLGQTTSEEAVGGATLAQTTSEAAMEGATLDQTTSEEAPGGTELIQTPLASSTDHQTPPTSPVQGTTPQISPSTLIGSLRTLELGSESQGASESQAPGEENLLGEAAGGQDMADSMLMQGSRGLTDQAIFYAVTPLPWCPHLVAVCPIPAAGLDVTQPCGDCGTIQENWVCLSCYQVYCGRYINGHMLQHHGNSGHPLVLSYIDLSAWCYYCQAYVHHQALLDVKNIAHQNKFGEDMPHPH
Chain of HDAC-1 (Q13547 whole entry): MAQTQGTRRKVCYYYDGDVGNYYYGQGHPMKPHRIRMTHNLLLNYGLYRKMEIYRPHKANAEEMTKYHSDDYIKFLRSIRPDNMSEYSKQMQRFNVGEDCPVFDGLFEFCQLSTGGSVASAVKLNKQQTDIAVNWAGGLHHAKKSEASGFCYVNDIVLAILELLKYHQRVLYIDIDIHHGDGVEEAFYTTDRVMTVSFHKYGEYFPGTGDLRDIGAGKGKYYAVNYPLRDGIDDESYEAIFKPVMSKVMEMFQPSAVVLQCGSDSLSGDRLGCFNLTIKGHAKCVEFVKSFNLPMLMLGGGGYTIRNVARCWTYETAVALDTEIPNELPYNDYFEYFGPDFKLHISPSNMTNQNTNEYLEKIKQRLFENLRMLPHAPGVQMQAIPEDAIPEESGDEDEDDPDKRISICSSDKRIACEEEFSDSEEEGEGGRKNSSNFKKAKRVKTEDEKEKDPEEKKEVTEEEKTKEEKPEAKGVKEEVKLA
Chain of HDAC-5 (Q9UQL6 whole entry): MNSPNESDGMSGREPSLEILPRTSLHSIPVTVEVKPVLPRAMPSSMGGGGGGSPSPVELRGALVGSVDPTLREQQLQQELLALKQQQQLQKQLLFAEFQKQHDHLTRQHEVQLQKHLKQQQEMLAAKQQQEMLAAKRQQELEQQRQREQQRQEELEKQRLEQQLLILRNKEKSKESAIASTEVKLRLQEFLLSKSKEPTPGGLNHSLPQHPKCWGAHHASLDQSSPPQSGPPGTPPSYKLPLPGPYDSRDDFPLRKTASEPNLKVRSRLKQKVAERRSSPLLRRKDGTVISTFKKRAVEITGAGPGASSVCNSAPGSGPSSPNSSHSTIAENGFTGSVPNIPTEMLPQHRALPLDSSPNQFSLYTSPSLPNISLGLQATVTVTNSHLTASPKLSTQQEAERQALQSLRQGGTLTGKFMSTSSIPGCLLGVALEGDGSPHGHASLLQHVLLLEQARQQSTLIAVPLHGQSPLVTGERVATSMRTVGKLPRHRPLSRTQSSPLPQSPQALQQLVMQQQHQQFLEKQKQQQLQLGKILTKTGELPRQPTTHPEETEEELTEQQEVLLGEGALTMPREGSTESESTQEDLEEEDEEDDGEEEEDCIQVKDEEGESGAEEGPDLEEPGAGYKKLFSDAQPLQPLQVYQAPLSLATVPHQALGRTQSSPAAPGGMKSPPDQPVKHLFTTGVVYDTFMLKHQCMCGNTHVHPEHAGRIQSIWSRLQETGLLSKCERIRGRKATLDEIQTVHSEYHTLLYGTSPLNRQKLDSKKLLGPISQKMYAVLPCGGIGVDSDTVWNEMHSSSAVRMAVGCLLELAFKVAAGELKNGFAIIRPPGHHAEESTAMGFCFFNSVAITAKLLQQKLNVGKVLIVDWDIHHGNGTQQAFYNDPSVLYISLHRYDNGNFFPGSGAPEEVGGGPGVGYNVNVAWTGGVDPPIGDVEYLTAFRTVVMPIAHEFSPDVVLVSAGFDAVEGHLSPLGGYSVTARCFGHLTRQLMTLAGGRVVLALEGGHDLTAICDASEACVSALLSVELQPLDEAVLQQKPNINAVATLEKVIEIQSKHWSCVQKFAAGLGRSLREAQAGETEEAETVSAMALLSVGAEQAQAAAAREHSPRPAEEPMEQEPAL

Compound: O=C(CCCCCOc1ccc(Nc2nc(NC3CCCCC3)c3nc[nH]c3n2)cc1)NO [Example 3, 6-(4-(6-(cyclohexylamino)-9H-purin-2-ylamino)phenoxy)-N-hydroxyhexanamide]
GI50 (NCI-H322M): 3000 nM | GI50 (SK-MEL-28): 3640 nM | GI50 (COLO205): 1260 nM | GI50 (NCI-H460): 2040 nM | GI50 (NCI-H23): 4730 nM | GI50 (HCT-15): 4300 nM | GI50 (TK-10): 2680 nM | GI50 (HL-60(TB)): 2950 nM | GI50 (RXF393): 1900 nM | GI50 (SK-MEL-5): 2820 nM | GI50 (UACC-62): 2220 nM | GI50 (MDA-MB-231/ATCC): 1930 nM | GI50 (MOLT-4): 1780 nM | GI50 (UACC-257): 2940 nM | GI50 (K-562): 2030 nM | GI50 (SF-268): 3830 nM | GI50 (PC-3): 2980 nM | GI50 (NCI-H226): 2880 nM | GI50 (HCC-2998): 3580 nM | GI50 (M14): 1960 nM | GI50 (SN12C): 3230 nM | GI50 (SF-539): 1570 nM | GI50 (NCI/ADR-RES): 13500 nM | GI50 (HOP-62): 2960 nM | GI50 (HS578T): 1610 nM | GI50 (MCF7): 1460 nM | GI50 (MDA-MB-435): 2460 nM | GI50 (SR): 669 nM | GI50 (SK-OV-3): 2520 nM | GI50 (OVCAR-3): 2170 nM | GI50 (LOXIMVI): 1180 nM | GI50 (OVCAR-8): 2800 nM | GI50 (RPMI-8226): 2810 nM | GI50 (OVCAR-4): 3820 nM | GI50 (SNB-75): 1690 nM | GI50 (786-0): 4610 nM | GI50 (BT-549): 5510 nM | GI50 (A498): 195 nM | GI50 (OVCAR-5): 2260 nM | GI50 (T-47D): 2330 nM | GI50 (ACHN): 3570 nM | GI50 (SF-295): 2350 nM | GI50 (HT29): 2540 nM | GI50 (UO-31): 3520 nM | GI50 (A549/ATCC): 2300 nM | GI50 (MALME-3M): 2490 nM | GI50 (SNB-19): 5960 nM | GI50 (SW-620): 895 nM | GI50 (HCT-116): 1450 nM | GI50 (SK-MEL-2): 2930 nM | GI50 (MDA-MB-468): 2400 nM | GI50 (CCRF-CEM): 667 nM | GI50 (KM12): 1740 nM | GI50 (NCI-H522): 2720 nM | GI50 (U251): 1960 nM | GI50 (DU-145): 2510 nM | GI50 (IGROV1): 2240 nM | GI50 (CAKI-1): 4680 nM

IC50 (HDAC-10): 284 nM | IC50 (HDAC-4): > 100000 nM | IC50 (HDAC-5): > 100000 nM | IC50 (HDAC-1): 422 nM | IC50 (HDAC-8): 225 nM | IC50 (HDAC-7): > 100000 nM | IC50 (HDAC-11): 159 nM | IC50 (HDAC-2): 1640 nM | IC50 (HDAC-3): 1180 nM | IC50 (HDAC-6): 9.8 nM | IC50 (HDAC-9): > 100000 nM
Compound: Cn1cnc2c(NC3CCCCC3)nc(Nc3ccc(OCCCCCC(=O)NO)cc3)nc21 [Example 9, 6-(4-(6-(cyclohexylamino)-9-methyl-9H-purin-2-ylamino)phenoxy)-N-hydroxyhexanamide]

Compound: Oc1c2ccccc2c2c3c(cccc13)N=N2 [SP600125]
IC50 (TTK/Mps1): 250 nM

IC50 (HDAC-10): 19 nM | IC50 (HDAC-4): > 100000 nM | IC50 (HDAC-5): > 100000 nM | IC50 (HDAC-1): 23 nM | IC50 (HDAC-8): 268 nM | IC50 (HDAC-7): > 100000 nM | IC50 (HDAC-11): 12 nM | IC50 (HDAC-2): 124 nM | IC50 (HDAC-3): 140 nM | IC50 (HDAC-6): 6.8 nM | IC50 (HDAC-9): > 100000 nM
Compound: Cn1cnc2c(NC3CCCCC3)nc(Nc3ccc(OCCCCCCC(=O)NO)cc3)nc21 [Example 8, 7-(4-(6-(Cyclohexylamino)-9-methyl-9H-purin-2-ylamino)phenoxy)-N-hydroxyheptanamide]

Compound: CCc1cccc(CC)c1NC(=O)c1nn(C)c2c1CCc1cnc(Nc3ccc(C(=O)NC4CCN(C)CC4)cc3OC(F)(F)F)nc1-2 [NMS-P715]
efficacy in an ovarian xenograft (ovarian xenograft): promising efficacies
